# Results as given in patent US4728659A, “Aminomethyl derivatives and preparation process thereof as well as platelet aggregation inhibitors containing same” (SS Pharmaceutical Co., Ltd., priority 1984, dated 1988).
# Assays:
# [1] = tested on: platelet aggregation by ADP; assay: Inhibition of aggregation of rabbit platelets (PRP) by ADP; format: cell-based; conditions: Oryctolagus cuniculus, ADP 3 μM, compound added 2 minutes before agent, read-out: 50% Platelet Aggregation Inhibitory Concentration (IC50), ADP
# Experimental: (§1) Blood, which had been added with sodium citrate, was collected from a male rabbit (body weight: 3 Kg), which was then subjected suitably to centrifugation so that platelet-rich plasma (PRP) and platelet-poor plasma (PPP) were obtained. Inhibitory effects of certain sample compounds of this invention against aggregation by ADP (3 μM) and arachidonic acid (1 mM) were thereafter tested by a method known per se in the art. Each sample compound was dissolved in 5% dimethylsulfoxide (DMSO) and Tween 80 (trade mark) and was then added to PRP 2 minutes before addition of each of the aggregation agents to the PRP.
# [2] = tested on: platelet aggregation by arachidonic acid; assay: Inhibition of aggregation of rabbit platelets (PRP) by arachidonic acid; format: cell-based; conditions: Oryctolagus cuniculus, arachidonic acid 1 mM, compound added 2 minutes before agent, read-out: 50% Platelet Aggregation Inhibitory Concentration (IC50), Arachidonic acid
# Experimental: as §1
# [3] = Acute toxicity, intraperitoneal, mice; format: in vivo; conditions: for abnormality observed / survival of mice: 200 mg/Kg intraperitoneal, five ddY male mice, after 7 days; for LD50 at 168 h: mouse, in vivo, ip
# Experimental: Each of certain sample compounds (which had been obtained in Examples 6, 7, 10 and 15-17, which will be given herein) was dissolved in water and was then administered intraperitoneally at a dose of 200 mg/Kg to a group of five ddY male mice. Those mice were fed for 7 days while observing them.
# [4] = tested on: platelet aggregation by collagen; assay: Platelet aggregation by collagen in PRP after oral administration to rats (ex vivo); conditions: 30 mg/Kg oral, male Wister rat, blood collected 2 hours after administration, 100 μg/ml collagen, read-out: Percent inhibition against aggregation, collagen
# Experimental: (§2) Each sample compound was orally administered at 30 mg/Kg to a male Wister rat (body weight: 220 g) which had fasted for 24 hours. Platelet-rich plasma was obtained from blood which had been collected 2 hours after the administration and added with sodium citrate. Changes in platelet aggregation upon addition of 60 μM of ADP or 100 μg/ml of collagen were observed. The number of platelets was adjusted to 6×10^5 platelets/mm^3 for aggregation by ADP and to 3×10^5 platelets/mm^3 for aggregation by collagen. Each of the sample compounds was dissolved in DMSO+Tween 80 (trade mark) prior to its administration.
# [5] = tested on: platelet aggregation by ADP; assay: Platelet aggregation by ADP in PRP after oral administration to rats (ex vivo); conditions: 30 mg/Kg oral, male Wister rat, blood collected 2 hours after administration, 60 μM ADP, read-out: Percent inhibition against aggregation, ADP
# Experimental: as §2
# [6] = intraperitoneal, ddY male mice, 7 days observation
Compound,IC50 [1] [µg/mL],IC50 [2] [µg/mL],abnormality observed [3],survival of mice [3],"LD50 at 168 h [3, 6] [mg/kg]",LD50 at 168 h [3] [mg/kg],inhibition at 30 mg/kg [4] [%],inhibition at 30 mg/kg [5] [%]
"CCN(CC)CC#CC(=O)c1ccc(C)cc1 [Example 1, N-[4-(p-Methylphenyl)-4-oxo-2-butynyl]-N,N-diethylamine]",7,2.5,,,,,,
CCN(CC)CC#CC(=O)c1ccc(OC)cc1 [Example 4],9,3.6,,,,,,
"CCN(CC)CC#CC(OC(=O)c1cccnc1)c1ccccc1 (centres unmarked) [Example 6, N-(4-Nicotinoyloxy-4-phenyl-2-butynyl)-N,N-diethylamine]",,,no abnormality was observed,all the mice were still alive,> 200,,,
CCN(CC)CC#CC(OC(=O)c1cccnc1)c1ccc(C)cc1 (centres unmarked) [Example 7],,,no abnormality was observed,all the mice were still alive,,> 200,37.6,20.1
CCN(CC)CC#CC(OC(=O)c1cccnc1)c1ccc(OC)cc1 (centres unmarked) [Example 10],,,no abnormality was observed,all the mice were still alive,,> 200,,
CCN(CC)C/C=C/C(OC(=O)c1cccnc1)c1ccc(C)cc1 (centres unmarked) [Example 13],,,,,,,31.5,30.5
"CN(C)CC#CC(=O)c1ccccc1 [Example 15, N-(4-Phenyl-4-oxo-2-butynyl)-N,N-dimethylamine]",21,4.7,,,> 200,,,
"CCCN(CC)CC#CC(=O)c1ccccc1 [Example 16, N-(4-Phenyl-4-oxo-2-butynyl)-N-ethyl-N-n-propylamine]",18,4.3,,,> 200,,,
CCN(CC)CC#CC(=O)c1ccccc1 [Example 17],20,4.5,,,,> 200,,
